Experimental data taken from patent publication US9708377B2, “Scorpion toxin analogue and method for treating autoimmune diseases” (MONASH UNIVERSITY, priority 2013, dated 2017).
pIC50: −log10 of the molar value.

Key:
mKv1.1 channels = target: T1, mKv1.1 channels (Mus musculus, UniProt P16388); experiment: Whole-cell patch-clamp block of Kv1.1 channels in L929 cells; type: cell-based; conditions: for current block on Kv1.1 channels: 100 nM, n=3, preliminary
T1 construct: expressed in transfected cells
Description: Cells and Cell Lines—L929 mouse fibroblast cells stably expressing mKv1.1 and mKv1.3 channels (Grissmer S et al., 1994) were maintained in DMEM medium (Invitrogen Corporation, Carlsbad, Calif., United States of America) supplemented with 100 IU/mL penicillin, 0.1 μg/mL streptomycin, 2 mM L-glutamine, 10% heat-inactivated foetal bovine serum, and 0.5 mg/mL G418 (EMD Chemicals, Gibbstown, N.J., United States of America).
Electrophysiological Analysis—Experiments were conducted at room temperature in the whole-cell configuration of the patch-clamp technique. A manual setup and an automated Port-a-patch setup (Nanion, North Brunswick, N.J., United States of America) were used in parallel, both linked to a HEKA EPC10USB amplifier. […] The bath solution contained (in mM): 160 NaCl, 4.5 KCl, 2 CaCl2, 1 MgCl2, 10 HEPES, pH 7.2, 300 mOsm. Kv currents were elicited every 30 s by 200-ms depolarising pulses from a holding potential of −80 mV to 40 mV. Kd values and Hill coefficients were determined by fitting the Hill equation to the reduction of peak current measured at 40 mV.

rat Kv1.3 channels = rat Kv1.3 channels (Rattus norvegicus, UniProt P15384); conditions: Lebrun B et al., 1997; read-out: IC50 inhibition of rat Kv1.3 channels; cited from earlier work
[1] = tested on: voltage-gated K+ channels; conditions: rat brain synaptosomal membranes; read-out: IC50 competition with 125I-kaliotoxin binding; cited from earlier work
[2] = tested on: rat brain synaptosomal membranes; conditions: cited from earlier work
Kv1.1 = Kv1.1 (Homo sapiens, UniProt Q09470); conditions: Kv1.1 complex; cited from earlier work
Kv1.3 [3] = target: T2, Kv1.3 (Rattus norvegicus, UniProt P15384); conditions: Kv1.3 complex; cited from earlier work
Kv1.3 [4] = target: T2, Kv1.3; conditions: C-terminal amidation; cited from earlier work

T1 sequence (P16388 whole entry): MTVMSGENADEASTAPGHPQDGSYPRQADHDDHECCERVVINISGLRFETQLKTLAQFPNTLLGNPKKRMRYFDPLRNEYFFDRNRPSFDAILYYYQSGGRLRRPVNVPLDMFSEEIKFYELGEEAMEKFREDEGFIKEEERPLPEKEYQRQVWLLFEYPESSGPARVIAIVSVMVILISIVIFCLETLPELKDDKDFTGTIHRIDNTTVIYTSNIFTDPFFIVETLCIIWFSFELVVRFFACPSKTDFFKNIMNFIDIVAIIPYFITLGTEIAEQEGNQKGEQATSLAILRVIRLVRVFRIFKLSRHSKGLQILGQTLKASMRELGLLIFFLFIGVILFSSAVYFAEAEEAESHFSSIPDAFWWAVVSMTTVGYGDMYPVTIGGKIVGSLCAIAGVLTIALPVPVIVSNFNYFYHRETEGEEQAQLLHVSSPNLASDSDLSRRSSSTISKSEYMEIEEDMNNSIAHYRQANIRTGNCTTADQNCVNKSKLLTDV
T2 sequence (P15384 whole entry): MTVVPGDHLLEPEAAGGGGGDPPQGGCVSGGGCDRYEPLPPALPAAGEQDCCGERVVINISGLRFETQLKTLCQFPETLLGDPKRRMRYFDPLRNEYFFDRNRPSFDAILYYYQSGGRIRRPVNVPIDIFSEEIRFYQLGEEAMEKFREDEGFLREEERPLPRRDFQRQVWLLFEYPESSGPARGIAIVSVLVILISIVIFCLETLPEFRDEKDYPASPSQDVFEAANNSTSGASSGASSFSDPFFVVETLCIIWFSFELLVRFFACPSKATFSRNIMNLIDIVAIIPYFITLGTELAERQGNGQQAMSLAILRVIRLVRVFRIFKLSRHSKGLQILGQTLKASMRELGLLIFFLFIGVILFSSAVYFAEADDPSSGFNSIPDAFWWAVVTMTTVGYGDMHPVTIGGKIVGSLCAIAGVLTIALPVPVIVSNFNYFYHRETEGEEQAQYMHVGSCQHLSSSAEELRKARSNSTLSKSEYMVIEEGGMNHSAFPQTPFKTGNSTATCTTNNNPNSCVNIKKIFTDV
Sequence of Kv1.1 (Q09470 whole entry): as the sequence (P16388 whole entry) above, with A9V, T14A, I202V, T213N, I449M, A471V, G476A, D482N counted along it
Sequence of rat Kv1.3 channels (P15384 whole entry): as the sequence (P15384 whole entry) above

| Molecule | pIC50 (mKv1.1 channels) | current block on Kv1.1 channels (mKv1.1 channels) | pIC50 (rat Kv1.3 channels) | pIC50 [1] | competition with 125I-apamin binding [2] | Gb (exp) experimental binding free energy (Kv1.1) [kcal/mol] | Gb (exp) experimental binding free energy (Kv1.3 [3]) [kcal/mol] | affinity for Kv1.3 of amidated form compared to synthetic carboxylated form (Kv1.3 [4]) |
| --- | --- | --- | --- | --- | --- | --- | --- | --- |
| CSCC[C@@H]1NC(=O)[C@@H]2CSSC[C@H](NC(=O)[C@H](CO)NC(=O)[C@H](C)N)C(=O)N[C@@H](CCCNC(=N)N)C(=O)N[C@@H]([C@@H](C)O)C(=O)N3CCC[C@H]3C(=O)N[C@@H](CCCCN)C(=O)N[C@@H](CC(=O)O)C(=O)N[C@H]3CSSC[C@H](NC(=O)[C@H](CCCCN)NC(=O)[C@H](CCCNC(=N)N)NC(=O)[C@H](CC(N)=O)NC1=O)C(=O)N[C@@H](CCCCN)C(=O)N[C@H]1CSSC[C@H](NC(=O)[C@@H]4CCCN4C(=O)[C@H](CC(=O)O)NC(=O)[C@H](C)NC3=O)C(=O)N[C@@H](C)C(=O)N[C@@H](CCCCN)C(=O)N[C@@H](CCC(=O)O)C(=O)N[C@@H]([C@@H](C)O)C(=O)NCC(=O)N[C@@H](CSSC[C@@H](C(N)=O)NC(=O)[C@H](CCCNC(=N)N)NC(=O)[C@H](CC(N)=O)NC1=O)C(=O)N1CCC[C@H]1C(=O)N[C@@H](Cc1ccc(O)cc1)C(=O)NCC(=O)N[C@@H](CCCCN)C(=O)N2 [HsTX1[R14A]] | < 7.00 | 10-16% |  |  |  |  |  |  |
| ASCRTPKDCADPCRKETGCPYGKCMNRKCKCNRC [HsTX1] |  |  | ~10.92 | ~12.00 | did not compete | -11.1 ± 0.1 | -14.9 ± 0.2 | five-fold greater affinity for Kv1.3 |
| CC[C@@H]1NC(=O)[C@@H]2CSSC[C@@H]3NC(=O)[C@H](CCCCN)NC(=O)[C@@H]4CSSC[C@H](NC(=O)[C@H](CC(=O)O)NC(=O)[C@H](CCCCN)NC(=O)[C@@H]5CCCN5C(=O)[C@H]([C@@H](C)O)NC(=O)[C@H](CCCNC(=N)N)NC(=O)[C@@H](NC(=O)[C@H](CO)NC(=O)[C@H](C)N)CSSC[C@H](NC(=O)[C@H](CCCCN)NC(=O)CNC(=O)[C@H](Cc5ccc(O)cc5)NC(=O)[C@@H]5CCCN5C(=O)[C@H](CSSC[C@@H](C(N)=O)NC(=O)[C@H](CCCNC(=N)N)NC(=O)[C@H](CC(N)=O)NC3=O)NC(=O)CNC(=O)[C@H]([C@@H](C)O)NC(=O)[C@H](CCC(=O)O)NC(=O)[C@H](CCCCN)NC1=O)C(=O)N[C@@H](CCSC)C(=O)N[C@@H](CC(N)=O)C(=O)N[C@@H](CCCNC(=N)N)C(=O)N[C@@H](CCCCN)C(=O)N4)C(=O)N[C@@H](C)C(=O)N[C@@H](CC(=O)O)C(=O)N1CCC[C@H]1C(=O)N2 [HsTX1[R14Abu], ASCRTPKDCADPCXKETGCPYGKCMNRKCKCNRC] | < 7.00 | 15-20% |  |  |  |  |  |  |
